From patent US6534447B1, “Herbicidal pyridine compounds” (BASF Aktiengesellschaft, priority 1999, dated 2003)

Legend:
Format in all cases: in vivo
[1] = tested on: Abutilon theophrasti (ABUTH, velvetleaf); test: Pre-emergence herbicidal evaluation; details: 3 weeks after treatment
Text: (§1) The pre-emergence herbicidal activity of the compounds of the present invention is exemplified by the following test in which the seeds of a variety of monocotyledonous and dicotyledonous plants are seperately mixed with potting soil and planted on top of approximately one inch of soil in separate post. After planting, the pots are sprayed with the selected aqueous acetone solution. containing test compound in sufficient quantity to provide the equivalent of about 0.025 to 0.4 kg per hectare of test compound per pot. The treated pots are then placed on greenhouse benches, watered and cared for in accordance with conventional greenhouse procedures. From 3 weeks after treatment, the tests are terminated and each pot is examined and rated according to the rating system set forth below. [table] [table]

[2] = tested on: Alopecurus myosuroides (ALOMY, black grass); test: Pre-emergence herbicidal evaluation; details: 3 weeks after treatment
Text: as §1

[3] = tested on: Echinochloa grus galli (ECHCG, barnyard grass); test: Pre-emergence herbicidal evaluation; details: 3 weeks after treatment
Text: as §1

[4] = tested on: Galium aparine (GALAP, cleaver); test: Pre-emergence herbicidal evaluation; details: 3 weeks after treatment
Text: as §1

[5] = tested on: Ipomoea hederacea (IPOHE, morning glory); test: Pre-emergence herbicidal evaluation; details: 3 weeks after treatment
Text: as §1

[6] = tested on: Matricaria inodora (MATIN, mayweed); test: Pre-emergence herbicidal evaluation; details: 3 weeks after treatment
Text: as §1

[7] = tested on: Setaria viridis (SETVI, green foxtail); test: Pre-emergence herbicidal evaluation; details: 3 weeks after treatment
Text: as §1

[8] = tested on: Stellaria media (STEME, chickweed); test: Pre-emergence herbicidal evaluation; details: 3 weeks after treatment
Text: as §1

[9] = tested on: Glycine max (GLXMA, soyabeans); test: Pre-emergence herbicidal evaluation (crop); details: 3 weeks after treatment
Text: as §1

[10] = tested on: Triticum aestivum (TRZAW, winter wheat); test: Pre-emergence herbicidal evaluation (crop); details: 3 weeks after treatment
Text: as §1

Zea mays (ZEAMX, maize) = test: Pre-emergence herbicidal evaluation (crop); details: 3 weeks after treatment
Text: as §1

[11] = tested on: Abutilon theophrasti (ABUTH, velvetleaf); test: Post-emergence herbicidal evaluation; details: 3 weeks after treatment
Method: (§2) These acetone solutions are diluted with water and the resulting formulations applied at dosage levels equivalent of about 0.025 to 0.4 kg per hectare of test compound per pot. After spraying the plants are placed on greenhouse benches and are cared for in the usual manner, commensurate with conventional greenhouse practices. From 3 weeks after treatment, the seedling plants are examined and rated according to the rating system provided above. A rating 0 indicates growth as untreated control, a rating 9 indicates death.

[12] = tested on: Alopecurus myosuroides (ALOMY, black grass); test: Post-emergence herbicidal evaluation; details: 3 weeks after treatment
Method: as §2

[13] = tested on: Dolium multiflorum (LOLMU, ryegrass); test: Post-emergence herbicidal evaluation; details: rate 0.100 kg/ha, 3 weeks after treatment
Method: as §2

[14] = tested on: Echinochloa grus galli (ECHCG, barnyard grass); test: Post-emergence herbicidal evaluation; details: 3 weeks after treatment
Method: as §2

[15] = tested on: Galium aparine (GALAP, cleaver); test: Post-emergence herbicidal evaluation; details: 3 weeks after treatment
Method: as §2

[16] = tested on: Ipomoea hederacea (IPOHE, morning glory); test: Post-emergence herbicidal evaluation; details: 3 weeks after treatment
Method: as §2

[17] = tested on: Matricaria inodora (MATIN, mayweed); test: Post-emergence herbicidal evaluation; details: 3 weeks after treatment
Method: as §2

[18] = tested on: Setaria viridis (SETVI, green foxtail); test: Post-emergence herbicidal evaluation; details: 3 weeks after treatment
Method: as §2

[19] = tested on: Stellaria media (STEME, chickweed); test: Post-emergence herbicidal evaluation; details: 3 weeks after treatment
Method: as §2

**Q.** With `Cc1cc(OCC=C(Cl)SC(F)(F)F)nc(Oc2cc(C(F)(F)F)nn2C)c1` [Example 5] as the molecule, how does the ABUTH rating ([1]; rate 0.025 kg/ha) read?
**A.** The ABUTH rating was 5 (5 - Definite injury).

**Q.** What about the ABUTH rating ([1]; rate 0.100 kg/ha) of the same molecule?
**A.** The ABUTH rating was 8 (8 - Approaching complete kill).

**Q.** And the ABUTH rating ([1]; rate 0.400 kg/ha)?
**A.** Its ABUTH rating is 8 (8 - Approaching complete kill).

**Q.** And the ALOMY rating ([2]; rate 0.025 kg/ha)?
**A.** The ALOMY rating was 7 (7 - Good herbicidal effect).

**Q.** What about the ALOMY rating ([2]; rate 0.100 kg/ha) of the same molecule?
**A.** The ALOMY rating was 8 (8 - Approaching complete kill).

**Q.** What about the ALOMY rating ([2]; rate 0.400 kg/ha) of the same molecule?
**A.** Its ALOMY rating is 8 (8 - Approaching complete kill).

**Q.** What about the ECHCG rating ([3]; rate 0.025 kg/ha) of the same molecule?
**A.** The ECHCG rating was 6 (6 - Herbicidal effect).

**Q.** And the ECHCG rating ([3]; rate 0.100 kg/ha)?
**A.** Its ECHCG rating is 8 (8 - Approaching complete kill).

**Q.** What about the ECHCG rating ([3]; rate 0.400 kg/ha) of the same molecule?
**A.** The ECHCG rating was 9 (9 - Complete kill).

**Q.** And the GALAP rating ([4]; rate 0.025 kg/ha)?
**A.** Its GALAP rating is 5 (5 - Definite injury).

**Q.** What about the GALAP rating ([4]; rate 0.100 kg/ha) of the same molecule?
**A.** The GALAP rating was 7 (7 - Good herbicidal effect).

**Q.** What about the GALAP rating ([4]; rate 0.400 kg/ha) of the same molecule?
**A.** Its GALAP rating is 7 (7 - Good herbicidal effect).

**Q.** What about the IPOHE rating ([5]; rate 0.025 kg/ha) of the same molecule?
**A.** Its IPOHE rating is 8 (8 - Approaching complete kill).

**Q.** And the IPOHE rating ([5]; rate 0.100 kg/ha)?
**A.** The IPOHE rating was 9 (9 - Complete kill).

**Q.** What about the IPOHE rating ([5]; rate 0.400 kg/ha) of the same molecule?
**A.** Its IPOHE rating is 9 (9 - Complete kill).

**Q.** And the MATIN rating ([6]; rate 0.025 kg/ha)?
**A.** The MATIN rating was 8 (8 - Approaching complete kill).

**Q.** What about the MATIN rating ([6]; rate 0.100 kg/ha) of the same molecule?
**A.** The MATIN rating was 8 (8 - Approaching complete kill).

**Q.** What about the MATIN rating ([6]; rate 0.400 kg/ha) of the same molecule?
**A.** Its MATIN rating is 9 (9 - Complete kill).

**Q.** And the SETVI rating ([7]; rate 0.025 kg/ha)?
**A.** Its SETVI rating is 8 (8 - Approaching complete kill).

**Q.** And the SETVI rating ([7]; rate 0.100 kg/ha)?
**A.** The SETVI rating was 9 (9 - Complete kill).

**Q.** And the SETVI rating ([7]; rate 0.400 kg/ha)?
**A.** Its SETVI rating is 9 (9 - Complete kill).

**Q.** What about the STEME rating ([8]; rate 0.025 kg/ha) of the same molecule?
**A.** The STEME rating was 9 (9 - Complete kill).

**Q.** What about the STEME rating ([8]; rate 0.100 kg/ha) of the same molecule?
**A.** Its STEME rating is 9 (9 - Complete kill).

**Q.** And the STEME rating ([8]; rate 0.400 kg/ha)?
**A.** The STEME rating was 9 (9 - Complete kill).

**Q.** What about the GLXMA rating ([9]; rate 0.025 kg/ha) of the same molecule?
**A.** Its GLXMA rating is 2 (2 - Slight effect).

**Q.** What about the GLXMA rating ([9]; rate 0.100 kg/ha) of the same molecule?
**A.** The GLXMA rating was 2 (2 - Slight effect).

**Q.** What about the GLXMA rating ([9]; rate 0.400 kg/ha) of the same molecule?
**A.** The GLXMA rating was 3 (3 - Moderate effect).

**Q.** And the TRZAW rating ([10]; rate 0.025 kg/ha)?
**A.** The TRZAW rating was 2 (2 - Slight effect).

**Q.** What about the TRZAW rating ([10]; rate 0.100 kg/ha) of the same molecule?
**A.** The TRZAW rating was 3 (3 - Moderate effect).

**Q.** What about the TRZAW rating ([10]; rate 0.400 kg/ha) of the same molecule?
**A.** The TRZAW rating was 6 (6 - Herbicidal effect).

**Q.** What about the ZEAMX rating (Zea mays (ZEAMX, maize); rate 0.025 kg/ha) of the same molecule?
**A.** The ZEAMX rating was 2 (2 - Slight effect).

**Q.** What about the ZEAMX rating (Zea mays (ZEAMX, maize); rate 0.100 kg/ha) of the same molecule?
**A.** Its ZEAMX rating is 3 (3 - Moderate effect).

**Q.** What about the ZEAMX rating (Zea mays (ZEAMX, maize); rate 0.400 kg/ha) of the same molecule?
**A.** Its ZEAMX rating is 4 (4 - Injury).

**Q.** What about the ABUTH rating ([11]; rate 0.025 kg/ha) of the same molecule?
**A.** The ABUTH rating was 7 (7 - Good herbicidal effect).

**Q.** What about the ABUTH rating ([11]; rate 0.100 kg/ha) of the same molecule?
**A.** Its ABUTH rating is 8 (8 - Approaching complete kill).

**Q.** What about the ABUTH rating ([11]; rate 0.400 kg/ha) of the same molecule?
**A.** Its ABUTH rating is 8 (8 - Approaching complete kill).

**Q.** And the ALOMY rating ([12]; rate 0.025 kg/ha)?
**A.** The ALOMY rating was 6 (6 - Herbicidal effect).

**Q.** What about the ALOMY rating ([12]; rate 0.100 kg/ha) of the same molecule?
**A.** Its ALOMY rating is 7 (7 - Good herbicidal effect).

**Q.** And the ALOMY rating ([12]; rate 0.400 kg/ha)?
**A.** Its ALOMY rating is 8 (8 - Approaching complete kill).

**Q.** What about the LOLMU rating [13] of the same molecule?
**A.** The LOLMU rating was 8 (8 - Approaching complete kill).

**Q.** And the ECHCG rating ([14]; rate 0.025 kg/ha)?
**A.** Its ECHCG rating is 7 (7 - Good herbicidal effect).

**Q.** And the ECHCG rating ([14]; rate 0.100 kg/ha)?
**A.** Its ECHCG rating is 8 (8 - Approaching complete kill).

**Q.** What about the ECHCG rating ([14]; rate 0.400 kg/ha) of the same molecule?
**A.** Its ECHCG rating is 8 (8 - Approaching complete kill).

**Q.** What about the GALAP rating ([15]; rate 0.025 kg/ha) of the same molecule?
**A.** Its GALAP rating is 7 (7 - Good herbicidal effect).

**Q.** And the GALAP rating ([15]; rate 0.100 kg/ha)?
**A.** The GALAP rating was 8 (8 - Approaching complete kill).

**Q.** And the GALAP rating ([15]; rate 0.400 kg/ha)?
**A.** Its GALAP rating is 8 (8 - Approaching complete kill).

**Q.** What about the IPOHE rating ([16]; rate 0.025 kg/ha) of the same molecule?
**A.** Its IPOHE rating is 9 (9 - Complete kill).

**Q.** What about the IPOHE rating ([16]; rate 0.100 kg/ha) of the same molecule?
**A.** The IPOHE rating was 9 (9 - Complete kill).

**Q.** What about the IPOHE rating ([16]; rate 0.400 kg/ha) of the same molecule?
**A.** Its IPOHE rating is 9 (9 - Complete kill).

**Q.** What about the MATIN rating ([17]; rate 0.025 kg/ha) of the same molecule?
**A.** The MATIN rating was 6 (6 - Herbicidal effect).

**Q.** And the MATIN rating ([17]; rate 0.100 kg/ha)?
**A.** Its MATIN rating is 7 (7 - Good herbicidal effect).

**Q.** What about the MATIN rating ([17]; rate 0.400 kg/ha) of the same molecule?
**A.** The MATIN rating was 7 (7 - Good herbicidal effect).

**Q.** What about the SETVI rating ([18]; rate 0.025 kg/ha) of the same molecule?
**A.** Its SETVI rating is 9 (9 - Complete kill).

**Q.** What about the SETVI rating ([18]; rate 0.100 kg/ha) of the same molecule?
**A.** Its SETVI rating is 9 (9 - Complete kill).

**Q.** And the SETVI rating ([18]; rate 0.400 kg/ha)?
**A.** The SETVI rating was 9 (9 - Complete kill).

**Q.** What about the STEME rating ([19]; rate 0.025 kg/ha) of the same molecule?
**A.** The STEME rating was 4 (4 - Injury).

**Q.** And the STEME rating ([19]; rate 0.100 kg/ha)?
**A.** The STEME rating was 5 (5 - Definite injury).

**Q.** What about the STEME rating ([19]; rate 0.400 kg/ha) of the same molecule?
**A.** Its STEME rating is 7 (7 - Good herbicidal effect).
